Experimental findings from patent publication US7781428B2 (Pfizer Inc., priority 2006, dated 2010) are described below.

For this assay, the target named is T1, mineralocorticoid receptor (MR) (Homo sapiens, UniProt P08235).
T1 construct: expressed in transfected cells; host or cells: Huh7 (human liver cells)
T1 sequence (P08235 726-964 limits assumed): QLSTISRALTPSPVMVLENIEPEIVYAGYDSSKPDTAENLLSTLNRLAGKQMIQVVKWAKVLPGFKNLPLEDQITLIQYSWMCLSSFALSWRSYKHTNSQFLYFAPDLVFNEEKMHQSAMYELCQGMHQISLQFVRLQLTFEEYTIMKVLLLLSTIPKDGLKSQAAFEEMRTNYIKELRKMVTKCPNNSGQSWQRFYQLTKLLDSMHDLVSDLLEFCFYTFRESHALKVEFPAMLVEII
The experiment in a line: Cell-based Gal4 response element-controlled luciferase reporter assay (MR antagonism). Particulars: Huh7 human liver cells transfected with Gal4 DBD-MR LBD fusion and luciferase reporter; block of agonist-induced activation; overnight incubation. In outline:
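Transiently transfected Huh7 cells were treated with agonist at 70-80% of full activation plus compounds for 18-20 h in medium with charcoal/dextran-stripped serum. Luciferase read-out was normalized to β-galactosidase (ONPG, OD420); IC50 came from curve fitting.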
(In general: Reporter assays use an easily measured gene product as a stand-in for the process of interest.)

A word on the IC50: it is the concentration that inhibits the measured activity by half. For `N#Cc1ccc(N2N=C3c4ccc(C(=O)O)cc4OCC3C2C2CCCC2)cc1` (racemic) [Example 70, 2-(4-cyanophenyl)-3-cyclopentyl-2,3,3a,4-tetrahydrochromeno[4,3-c]pyrazole-7-carboxylic acid], the IC50 turned out to be 906 nM.
In the case of `N#Cc1ccc(N2N=C3c4ccc(C(=O)O)cc4CC[C@@H]3[C@@H]2c2ccco2)cc1Cl` [Example 44, (3R,3aR)-2-(3-chloro-4-cyanophenyl)-3-(2-furyl)-3,3a,4,5-tetrahydro-2H-benzo[g]indazole-7-carboxylic acid], the IC50 came out at 16 nM.
Under `Cc1ccc([C@@H]2[C@@H]3CCc4cc(C(=O)O)ccc4C3=NN2c2ccc(C#N)c(Cl)c2)o1` [Example 41, (3S,3aS)-2-(3-chloro-4-cyanophenyl)-3-(5-methyl-2-furyl)-3,3a,4,5-tetrahydro-2H-benzo[g]indazole-7-carboxylic acid] stands > 1000 nM.
With `N#Cc1ccc(N2N=C3c4ccc(C(=O)NCCOCC(=O)O)cc4CC[C@@H]3[C@@H]2c2ccc(F)cc2)cc1Cl` (racemic) [Example 109, (±)-2-(2-((3RS,3aRS)-2-(3-chloro-4-cyanophenyl)-3-(4-fluorophenyl)-3,3a,4,5-tetrahydro-2H-benzo[g]indazole-7-carboxamido)ethoxy)acetic acid], the IC50 was > 1000 nM.
Take `Cc1ccc(C2C3CCc4cc(C(=O)O)ccc4C3=NN2c2ccc(C#N)c(Cl)c2)o1` (racemic) [Example 39]: the IC50 stood at 22 nM.
With `N#Cc1ccc(N2N=C3c4ccc(C(=O)O)cc4OC[C@H]3[C@H]2C2CCCC2)cc1Cl` [Example 66, (3R,3aS)-2-(3-chloro-4-cyanophenyl)-3-cyclopentyl-2,3,3a,4-tetrahydrochromeno[4,3-c]pyrazole-7-carboxylic acid], the IC50 was 3350 nM.
Turning to `N#Cc1ccc(N2N=C3c4ccc(C(=O)NCCCCC(=O)O)cc4CC[C@@H]3[C@@H]2c2ccc(F)cc2)cc1Cl` (racemic) [Example 104, (±)-5-((3RS,3aRS)-2-(3-chloro-4-cyanophenyl)-3-(4-fluorophenyl)-3,3a,4,5-tetrahydro-2H-benzo[g]indazole-7-carboxamido)pentanoic acid], the IC50 was determined as 122 nM.
On to `N#Cc1ccc(N2N=C3c4ccc(O)cc4CC[C@H]3[C@H]2c2ccc(F)cc2)cc1C(F)(F)F` [Example 85, 4-((3S,3aS)-3-(4-fluorophenyl)-7-hydroxy-3,3a,4,5-tetrahydrobenzo[g]indazol-2-yl)-2-(trifluoromethyl)benzonitrile], for which the IC50 was > 1000 nM.
The figure for `N#Cc1ccc(N2N=C3c4ccc(C(=O)O)cc4CCC3C2C2CCCC2)cc1OCc1ccccc1` (racemic) [Example 31, 2-(3-(benzyloxy)-4-cyanophenyl)-3-cyclopentyl-3,3a,4,5-tetrahydro-2H-benzo[g]indazole-7-carboxylic acid] is 488 nM.
